Laboratory results from patent publication US7307095B2, “Inhibitors of cathepsin S” (IRM LLC, priority 2003, dated 2007).

Tests used:
Format in all cases: biochemical
Cathepsin B = Cathepsin B (Homo sapiens, UniProt P07858); assay: Cathepsin B inhibition, fluorogenic peptide substrate kinetic assay (selectivity ratio vs cathepsin S); settings: ratio of cathepsin B inhibition constant to cathepsin S inhibition constant
Method: (§1) Kinetic measurements are performed in a total reaction volume of 30 μl in 384-well microtiter plates. […] Control reactions in the absence of inhibitor are performed in replicates of 24. The reactions are initiated by adding the substrate, acetyl-histidine-proline-valine-lysine-amino carbamoyl coumarin, to a final concentration of 10 μM. The rate of substrate hydrolysis is measured by monitoring the increase in fluorescence at an excitation wavelength of 380 nm and an emission wavelength of 450 nm that results from cleavage of the aniline bond in the substrate by the enzyme. The apparent inhibition constants for the compounds are determined from the enzyme progress curves ([…]. Elrod, et al. Anal Biochem 2000, 286(1), 45-50) and are then used to calculate the inhibition constants for competitive inhibitors. Selectivity for cathepsin S in the presence of cathepsin isozymes was determined by the ratio of the cathepsin isozyme inhibition constant of a compound of the present invention to the cathepsin S inhibition constant of the same compound.

Cathepsin S = Cathepsin S (Homo sapiens, UniProt P25774); assay: Cathepsin S inhibition, fluorogenic peptide substrate kinetic assay; settings: Cathepsin S inhibition constant; read-out: Ki Cat. S
Cathepsin S, sequence (P25774 115-331, species assumed): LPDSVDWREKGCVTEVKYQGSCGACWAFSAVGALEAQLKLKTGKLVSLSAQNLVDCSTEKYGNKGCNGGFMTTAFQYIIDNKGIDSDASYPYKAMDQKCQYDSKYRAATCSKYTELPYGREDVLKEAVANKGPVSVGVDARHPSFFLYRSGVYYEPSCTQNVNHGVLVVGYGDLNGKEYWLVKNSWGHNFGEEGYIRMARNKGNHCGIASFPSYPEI
Method: (§2) The optimal substrate for cathepsin S, acetyl-histidine-proline-valine-lysine-amino carbamoyl coumarin, was identified from screening a combinatorial library of fluorogenic peptide substrates (Harris, J. L., B. J. Backes, et al. Proc Natl Acad Sci USA 2000, 97(14), 7754-9). Kinetic measurements are performed in a total reaction volume of 30 μl in 384-well microtiter plates. […] Control reactions in the absence of inhibitor are performed in replicates of 24. The reactions are initiated by adding the substrate, acetyl-histidine-proline-valine-lysine-amino carbamoyl coumarin, to a final concentration of 50 μM. The rate of substrate hydrolysis is measured by monitoring the increase in fluorescence at an excitation wavelength of 380 nm and an emission wavelength of 450 nm that results from cleavage of the aniline bond in the substrate by the enzyme. The apparent inhibition constants for the compounds are determined from the enzyme progress curves (Kuzmic, P., K. C. Elrod, et al. Anal Biochem 2000, 286(1), 45-50) and are then used to calculate the inhibition constants for competitive inhibitors.

Cathepsin K = target: T1, Cathepsin K (Homo sapiens, UniProt P43235); assay: Cathepsin K inhibition, fluorogenic peptide substrate kinetic assay (selectivity ratio vs cathepsin S); settings: ratio of cathepsin K inhibition constant to cathepsin S inhibition constant
T1 sequence (P43235 115-329): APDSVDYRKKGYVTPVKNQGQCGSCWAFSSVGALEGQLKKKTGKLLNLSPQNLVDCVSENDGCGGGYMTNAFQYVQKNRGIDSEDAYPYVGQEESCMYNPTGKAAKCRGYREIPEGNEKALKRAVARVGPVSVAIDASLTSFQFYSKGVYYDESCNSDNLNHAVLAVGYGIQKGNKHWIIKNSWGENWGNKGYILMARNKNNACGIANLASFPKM
Method: as §1, with “acetyl-lysine-histidine-proline-lysine-amino” for “acetyl-histidine-proline-valine-lysine-amino”, “40” for “10”

Cathepsin L = Cathepsin L (Homo sapiens, UniProt P07711); assay: Cathepsin L inhibition, fluorogenic peptide substrate kinetic assay (selectivity ratio vs cathepsin S); settings: ratio of cathepsin L inhibition constant to cathepsin S inhibition constant
Cathepsin L, sequence (P07711 114-333, species assumed): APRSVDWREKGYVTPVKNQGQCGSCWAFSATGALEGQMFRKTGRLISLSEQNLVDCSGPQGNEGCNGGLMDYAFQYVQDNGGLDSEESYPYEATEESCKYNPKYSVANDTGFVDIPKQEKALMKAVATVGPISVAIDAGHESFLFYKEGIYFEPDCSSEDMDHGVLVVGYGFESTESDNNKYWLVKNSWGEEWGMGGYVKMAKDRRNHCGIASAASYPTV
Method: as §2, with “cathepsin L, acetyl-histidine-lysine-phenylalanine-lysine-amino” for “cathepsin S, acetyl-histidine-proline-valine-lysine-amino”, “substrate, acetyl-histidine-lysine-phenylalanine-lysine-amino” for “substrate, acetyl-histidine-proline-valine-lysine-amino”, “of 20” for “of 50”, “curves ([…].” for “curves (Kuzmic, P., K. C.”, “inhibitors. Selectivity for cathepsin S in the presence of cathepsin isozymes was determined by the ratio of the cathepsin isozyme inhibition constant of a compound of the present invention to the cathepsin S inhibition constant of the same compound.” for “inhibitors.”

- Selectivity for Cat. S over Cat. B (Cathepsin B): +++ (+++, >1000)
- Ki (Cathepsin S): < 100 nM
- Selectivity for Cat. S over Cat. K (Cathepsin K): +++ (+++, >1000)
- Selectivity for Cat. S over Cat. L (Cathepsin L): ++ (++, >100)
SMILES: CCOC(=O)C[C@@H](CN1CCc2cc(F)ccc21)NC(=O)[C@H](CC1CCCCC1)Nc1nc2ccc(Cl)cc2s1 [Example 30, 3-(S)-[2-(S)-(6-Chloro-benzothiazol-2-ylamino)-3-cyclohexyl-propionylamino]-4-(5-fluoro-2,3-dihydro-indol-1-yl)-butyric acid ethyl ester]
